ChEMBL document CHEMBL5512675, “Design of Selective PARP-1 Inhibitors and Antitumor Studies” (J Med Chem, 2024)
One block for each compound: values may come before it.

Key:
[1] = biological target: Poly [ADP-ribose] polymerase 1 (Mus musculus, UniProt P11103); assay: Inhibition of recombinant mouse PARP-1 incubated for 16 hrs in presence of NAD+ by liquid scintillation spectrometry based scintillation proximity assay
[2] = biological target: Poly [ADP-ribose] polymerase 1 (Homo sapiens, UniProt P09874); assay: Inhibition of GST-tagged human PARP1 incubated for 30 mins by chemiluminescence based UV/visible spectrophotometric analysis
[3] = biological target: Poly [ADP-ribose] polymerase 2 (Homo sapiens, UniProt Q9UGN5); assay: Inhibition of GST-tagged human PARP2 incubated for 30 mins by chemiluminescence based UV/visible spectrophotometric analysis
SK-OV-3 [4] = assay: animal or person; conditions: Mus musculus, SK-OV-3, po, 744 h, read-out: TGI
Description: Antitumor activity against human SK-OV-3 cells xenografted in female BALB/c nude mouse assessed as tumor growth inhibition at 50 mg/kg, po administered via gavage once daily for 31 days relative to control

[5] = Inhibition of PARP1 Ala755Gln, Gln759Ser and Val762Ile mutant (unknown origin) incubated for 1 hrs in presence of NAD and DNA by ELISA
HCC1937 = assay: cells; conditions: Homo sapiens, HCC1937, 72 h
Description: Antiproliferative activity against human HCC1937 cells harboring BRCA2 mutant assessed as inhibition of cell proliferation incubated for 72 hrs

CAPAN-1 = assay: cells; conditions: Homo sapiens, CAPAN-1, 72 h
Description: Antiproliferative activity against human CAPAN-1 cells harboring BRCA1 mutant assessed as inhibition of cell proliferation incubated for 72 hrs

SiHa = assay: cells; conditions: Homo sapiens, 72 h
Description: Antiproliferative activity against human SiHa cells assessed as inhibition of cell proliferation incubated for 72 hrs

C-33-A = assay: cells; conditions: Homo sapiens, 72 h
Description: Antiproliferative activity against human C-33-A cells assessed as inhibition of cell proliferation incubated for 72 hrs

SK-OV-3 [6] = assay: cells; conditions: Homo sapiens, SK-OV-3, 72 h
Description: Antiproliferative activity against human SK-OV-3 cells assessed as inhibition of cell proliferation incubated for 72 hrs

HCT-116 = assay: cells; conditions: Homo sapiens, HCT-116, 72 h
Description: Antiproliferative activity against human HCT-116 cells assessed as inhibition of cell proliferation incubated for 72 hrs

A549 = assay: cells; conditions: Homo sapiens, A549, 72 h
Description: Antiproliferative activity against human A549 cells assessed as inhibition of cell proliferation incubated for 72 hrs

in vitro [7] = conditions: human, H8 cells
Description: Cytotoxicity against human H8 cells assessed as inhibition of cell proliferation incubated for 72 hrs

in vitro [8] = conditions: human, NCM460 cells
Description: Cytotoxicity against human NCM460 cells assessed as inhibition of cell proliferation incubated for 72 hrs

Chain of Poly [ADP-ribose] polymerase 2 (Q9UGN5 whole entry): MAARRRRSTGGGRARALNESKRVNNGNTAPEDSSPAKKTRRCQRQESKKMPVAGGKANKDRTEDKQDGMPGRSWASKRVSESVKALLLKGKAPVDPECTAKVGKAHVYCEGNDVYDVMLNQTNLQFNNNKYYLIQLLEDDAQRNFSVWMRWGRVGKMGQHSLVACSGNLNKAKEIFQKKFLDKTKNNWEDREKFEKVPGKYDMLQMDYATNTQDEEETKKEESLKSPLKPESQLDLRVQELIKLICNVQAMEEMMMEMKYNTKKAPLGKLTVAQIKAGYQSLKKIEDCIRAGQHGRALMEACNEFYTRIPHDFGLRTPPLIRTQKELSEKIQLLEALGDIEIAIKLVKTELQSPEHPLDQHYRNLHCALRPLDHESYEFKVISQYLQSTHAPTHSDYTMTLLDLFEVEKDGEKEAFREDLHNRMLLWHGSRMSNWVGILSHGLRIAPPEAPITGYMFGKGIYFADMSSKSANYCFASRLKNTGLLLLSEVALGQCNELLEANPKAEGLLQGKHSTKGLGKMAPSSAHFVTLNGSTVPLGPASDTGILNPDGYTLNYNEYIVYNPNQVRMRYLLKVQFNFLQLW
Chain of Poly [ADP-ribose] polymerase 1 (Homo sapiens, UniProt P09874) (P09874 whole entry): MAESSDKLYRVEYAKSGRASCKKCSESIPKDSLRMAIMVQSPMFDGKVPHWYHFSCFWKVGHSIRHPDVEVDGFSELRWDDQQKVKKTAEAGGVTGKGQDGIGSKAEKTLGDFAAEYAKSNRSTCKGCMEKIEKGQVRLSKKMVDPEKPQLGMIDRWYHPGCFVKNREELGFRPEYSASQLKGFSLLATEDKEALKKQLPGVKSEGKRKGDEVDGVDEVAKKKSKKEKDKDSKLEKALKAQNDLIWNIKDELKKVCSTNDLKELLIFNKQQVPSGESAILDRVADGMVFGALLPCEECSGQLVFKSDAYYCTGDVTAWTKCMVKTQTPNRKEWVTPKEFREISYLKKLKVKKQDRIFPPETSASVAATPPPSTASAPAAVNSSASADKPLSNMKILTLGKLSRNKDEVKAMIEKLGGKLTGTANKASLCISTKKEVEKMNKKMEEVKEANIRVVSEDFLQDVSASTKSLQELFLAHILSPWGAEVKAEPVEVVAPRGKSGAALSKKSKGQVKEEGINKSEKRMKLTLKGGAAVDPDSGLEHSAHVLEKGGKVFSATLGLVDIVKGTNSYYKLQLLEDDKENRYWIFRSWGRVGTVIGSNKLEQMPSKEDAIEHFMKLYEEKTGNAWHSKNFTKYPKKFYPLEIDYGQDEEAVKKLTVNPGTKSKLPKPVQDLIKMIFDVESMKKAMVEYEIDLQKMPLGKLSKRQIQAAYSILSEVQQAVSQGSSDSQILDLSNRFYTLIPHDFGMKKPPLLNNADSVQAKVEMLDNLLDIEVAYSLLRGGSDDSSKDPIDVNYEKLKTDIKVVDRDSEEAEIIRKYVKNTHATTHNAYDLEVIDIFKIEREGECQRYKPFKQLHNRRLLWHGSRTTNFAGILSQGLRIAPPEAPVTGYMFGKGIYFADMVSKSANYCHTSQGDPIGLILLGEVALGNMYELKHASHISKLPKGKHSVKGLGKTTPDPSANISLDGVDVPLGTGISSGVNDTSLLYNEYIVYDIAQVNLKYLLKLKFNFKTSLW
Chain of Poly [ADP-ribose] polymerase 1 (Mus musculus, UniProt P11103) (P11103 whole entry): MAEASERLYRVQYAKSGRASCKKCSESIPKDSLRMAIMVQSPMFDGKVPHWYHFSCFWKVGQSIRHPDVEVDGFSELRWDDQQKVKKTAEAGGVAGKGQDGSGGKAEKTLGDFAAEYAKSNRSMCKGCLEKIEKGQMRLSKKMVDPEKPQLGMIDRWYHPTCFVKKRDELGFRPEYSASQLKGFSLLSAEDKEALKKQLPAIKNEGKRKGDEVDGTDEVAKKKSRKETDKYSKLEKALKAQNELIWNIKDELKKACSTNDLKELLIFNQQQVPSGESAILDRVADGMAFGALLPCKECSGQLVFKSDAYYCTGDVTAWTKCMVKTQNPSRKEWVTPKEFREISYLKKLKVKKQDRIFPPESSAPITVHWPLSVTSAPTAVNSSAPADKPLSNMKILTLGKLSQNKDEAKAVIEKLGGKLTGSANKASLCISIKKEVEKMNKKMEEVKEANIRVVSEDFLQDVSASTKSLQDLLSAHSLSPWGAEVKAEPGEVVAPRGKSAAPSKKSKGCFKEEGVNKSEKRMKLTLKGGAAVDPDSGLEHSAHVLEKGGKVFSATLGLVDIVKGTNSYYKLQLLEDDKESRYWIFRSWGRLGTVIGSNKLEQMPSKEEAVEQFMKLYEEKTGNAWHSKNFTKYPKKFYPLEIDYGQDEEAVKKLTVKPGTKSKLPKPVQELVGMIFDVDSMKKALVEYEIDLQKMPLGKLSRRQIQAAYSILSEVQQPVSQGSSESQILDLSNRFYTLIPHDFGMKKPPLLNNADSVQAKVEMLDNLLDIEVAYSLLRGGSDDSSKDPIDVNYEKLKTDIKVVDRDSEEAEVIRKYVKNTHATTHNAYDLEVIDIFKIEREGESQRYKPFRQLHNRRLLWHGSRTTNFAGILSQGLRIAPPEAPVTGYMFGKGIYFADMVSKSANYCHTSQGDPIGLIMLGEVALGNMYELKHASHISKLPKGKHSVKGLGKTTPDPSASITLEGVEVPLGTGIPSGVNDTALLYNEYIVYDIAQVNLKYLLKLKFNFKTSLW

IC50 [2]: 42.9 nM | IC50 [3]: 1560 nM
SMILES: COc1cc(/C=N/NC(N)=S)c(Br)c(Br)c1OC
inhibition in vivo at 50 mg/kg (SK-OV-3 [4]): 57.4%

IC50 [2]: 33.2 nM | IC50 [3]: 2070 nM
SMILES: COc1cc(-c2nc3c(C(N)=O)cccc3[nH]2)cc(Br)c1OC(=O)C(C)(C)C

IC50 [2]: 50.5 nM | IC50 [3]: 760 nM
SMILES: CCCS(=O)(=O)Oc1c(Br)cc(-c2nc3c(C(N)=O)cccc3[nH]2)cc1OC

The remaining lines, values behind:

SMILES: Cn1cccc1/C=C1\C(=O)NC(=O)c2ccccc21
IC50 [1]: 4790 nM

SMILES: COc1cc(-c2nc3c(C(N)=O)cccc3[nH]2)cc(Br)c1OS(=O)(=O)c1c(C)cc(C)cc1C
IC50 [2]: 33.7 nM | IC50 [3]: 1780 nM

SMILES: O=C(c1cc(Cc2n[nH]c(=O)c3ccccc23)ccc1F)N1CCN(C(=O)C2CC2)CC1 [OLAPARIB]
IC50 [5]: 10.4 nM | IC50 (HCC1937): 22000 nM | IC50 (CAPAN-1): 60700 nM | IC50 (SiHa): > 200000 nM | IC50 (C-33-A): > 200000 nM | IC50 (SK-OV-3 [6]): 167000 nM | IC50 (HCT-116): > 200000 nM | IC50 (A549): > 200000 nM | IC50 at 72 h (in vitro [7]): > 200000 nM | IC50 at 72 h (in vitro [8]): > 200000 nM
